Patent US8252796B2, “1-butyl-2-hydroxyaralkyl piperazine derivatives and the uses as anti-depression medicine thereof” (CSPC Zhonggi Pharmaceutical Technology (Shijiazhuang) Co. …, priority 2008, dated 2012)

Tests used:
[1] = biological target: T1, reuptake of [3H]DA by striatum synaptosomes (Rattus norvegicus, UniProt P23977); assay: IC50 for inhibiting reuptake of [3H]DA by brain synaptosomes (Example 36); type: biochemical; details: mean, n = 3~4
T1 construct: from tissue; host or cells: rat striatum synaptosomes
Experimental: (§1) Male SD rats were sacrificed by cervical dislocation and then the brains thereof were taken out rapidly by decollation and placed on ice. Related rain tissues (for [^3H]5-HT and [^3H]NA reuptake experiment, prefrontal cortex was taken; for [^3H]DA reuptake experiment, striatum was taken) were separated and weighed. 10 times (V/W) of 0.32 mol/L ice-cold sucrose solution was added and was homogenized electrically with glass-teflon. The homogenate was centrifugated at 4° C. at 1000 g×10 min. Then the supernatant was taken and centrifugated at 4° C. at 17000 g×20 min. The precipitation was suspended in 30 volume of KRH Buffer (125 mM NaCl, 4.8 mM KCl, 1.2 mM CaCl2, 1.2 mM MgSO4, 1.0 mM KH2PO4, 22 mM NaHCO3, 25 mM HEPES, 10 mM Glucose, 10 μM Pargyline, 0.2 mg/ml Ascorbic Acid) and then was preserved in an ice bath for use. (for NA reuptake experiment, the cortex needed was suspended in 20 volume of KRH Buffer)
(§2) 1. Preparation of Rat Brain Synaptosomes (the Same as Example 35)
(§3) The compounds were used for the studies on inhibition effect (IC50) on reuptake of [^3H]5-HT/NA/DA. At least 5 concentrations each time were settled for each test compound. Each concentration was determined by the average of double twin tubes and the test was repeated for more than 3 times. A series of concentrations of the compounds were prepared by gradient dilution before use. 50 μl thereof was added in total reaction system. Then 50 μl suspended synaptic membrane was added and mixed evenly, incubated in water bath at 37° C. for 30 min. Then 10 nmol/L [^3H] 5-HT (or 50 nmol/L [^3H]DA or 40 nmol/L [^3H]NA) was added and incubated in water bath at 37° C. for 10 min (for [^3H]NA, incubated for 5 min). For the [^3H]5-HT reuptake experiment, 50 μL of fluoxetine (100 μmol/L) was added to the non-specific binding tube; for the [^3H]DA reuptake experiment, 50 μL of cocaine (600 μmol/L) was added to the non-specific binding tube; for the [^3H]NA reuptake experiment, 50 μL of desipramine (100 μmol/L) was added to the non-specific binding tube; for the solvent control, solvent was added to the total binding tube, but no test compound added.
(§4) Sigmoidal curve fitting was performed for the data obtained from all of the test drugs by Origin 6.1, and the IC50 value was calculated.

mice = assay: Oral administration acute toxicity in mice; details: for mortality (%) / number of died animals: 14 days
[2] = biological target: T2, reuptake of NA by brain synaptosomes (prefrontal cortex) (Rattus norvegicus, UniProt Q9WTR4); assay: Inhibition of [3H]NA reuptake by rat brain synaptosomes, single concentration (Example 35); type: biochemical; details: test substance 10 μmol/L; inhibitory rate of 0.1 mM venlafaxine taken as 100%
T2 construct: from tissue; host or cells: rat prefrontal cortex synaptosomes
Experimental: (§5) Studies on the reuptake of monoamine neurotransmitters by brain synaptosomes was performed, which is a currently important mean adopted in the worldwide in pharmacological studies of central nervous. This method can not only be used to study the action mechanism of a drug, but also be used for screening new drugs acting by this mechanism.
as §1
(§6) Stock solution of the test substance was thawed immediately before use and diluted with KBH Buffer to 100 μmol/L, 50 μl thereof was added in 500 μl of total reaction system, and the final concentration was 10 μmol/L. Then 50 μl suspended synaptic prepared above was added and mixed evenly, incubated in water bath for 30 min at 37° C. Then […] [^3H] 5-HT (50 nmol/L [^3H]DA or […] [^3H]NA) was added. After incubated at 37° C. for 10 min, the reaction system was immediately taken out and the reaction was stopped by adding 2 ml of ice-cold 150 mmol/L Tris-HCl buffer solution. The samples were collected on the circular fiberglass membrane by vacuum filtration, and the membrane was washed 3 times with 3 ml of ice-cold Tris-HCl buffer solution. The filtration membrane was removed, baked for 15 min in a far-infrared oven and placed into an EP tube. 1.5 ml scintillation fluid was added overnight and was tested by liquid scintillation counter. For the solvent control total binding tube and the non-specific binding tube, no test substance was added; for the total binding tube, 50 μl solvent was added.

[3] = biological target: T3, reuptake of [3H]NA by prefrontal cortex synaptosomes (Rattus norvegicus, UniProt Q9WTR4); assay: IC50 for inhibiting reuptake of [3H]NA by brain synaptosomes (Example 36); type: biochemical; details: mean, n = 3~4
T3 construct: from tissue; host or cells: rat prefrontal cortex synaptosomes
Experimental: as §1, §2, §3, §4

[4] = biological target: T4, reuptake of DA by brain synaptosomes (striatum) (Rattus norvegicus, UniProt P23977); assay: Inhibition of [3H]DA reuptake by rat brain synaptosomes, single concentration (Example 35); type: biochemical; details: test substance 10 μmol/L; inhibitory rate of 0.1 mM 6-hydroxy DA taken as 100%
T4 construct: from tissue; host or cells: rat striatum synaptosomes
Experimental: as §5, §1, §6

[5] = biological target: T5, reuptake of [3H]5-HT by prefrontal cortex synaptosomes (Rattus norvegicus, UniProt P31652); assay: IC50 for inhibiting reuptake of [3H]5-HT by brain synaptosomes (Example 36); type: biochemical; details: mean, n = 3~4
T5 construct: from tissue; host or cells: rat prefrontal cortex synaptosomes
Experimental: as §1, with “The precipitation was suspended in 30 volume of KRH Buffer (125 mM NaCl, 4.8 mM KCl, 1.2 mM CaCl2, 1.2 mM MgSO4, 1.0 mM KH2PO4, 22 mM NaHCO3, 25 mM HEPES, 10 mM Glucose, 10 μM Pargyline, 0.2 mg/ml Ascorbic Acid) and then was preserved in an ice bath for use.” left out
as §3, §4

[6] = biological target: T6, reuptake of 5-HT by brain synaptosomes (prefrontal cortex) (Rattus norvegicus, UniProt P31652); assay: Inhibition of [3H]5-HT reuptake by rat brain synaptosomes, single concentration (Example 35); type: biochemical; details: test substance 10 μmol/L; inhibitory rate of 0.1 mM venlafaxine taken as 100%
T6 construct: from tissue; host or cells: rat prefrontal cortex synaptosomes
Experimental: as §5, §1, §6

[7] = Pharmacokinetics and bioavailability, single i.v. and oral administration in SD rat; type: in vivo; details: for bioavailability: oral 50 mg/kg vs i.v. 10 mg/kg
Experimental: To study the pharmacokinetics parameters and the bioavailability of VIII-9, VIII-10 and SIPI5286 when single i.v. and oral administration in SD rat
Eighteen male rats were randomized into 6 groups and were administrated with the three compounds via i.v. and oral route, respectively. The dosage was 10 mg/kg (IV) and 50 mg/kg (PO). The test substance was dissolved in the solution of 5% DMSO/95% HP-β-CD aqueous solution (30%), and were administrated to the animal via i.v. and oral route. Blood plasma was collected at a serial of time points after i.v. and oral administration, and the blood drug concentrations were determined by LC/MS/MS. Then the pharmacokinetics parameters and the bioavailability were calculated based on the blood drug concentrations.

ICR mice = assay: Mice Forced Swimming Test (in vivo antidepression activity); details: for swimming test: immobility time: n = 12, mean±SD
[8] = biological target: T7, 5-HT reuptake, Rat brain synaptosome (Rattus norvegicus, UniProt P31652); assay: 5-HT reuptake, optical isomers (Example 37); type: biochemical; details: 15 min/37° C.
T7 construct: Rat brain; from tissue; host or cells: rat brain synaptosomes
Excerpt: (§7) 3. Experiment Results (IC50 Value was Obtained by Nonlinear Regression Analysis of Inhibition Rate/Concentration Response Curve)

[9] = biological target: T8, NE reuptake, Rat hypothalamus synaptosome (Rattus norvegicus, UniProt Q9WTR4); assay: NE reuptake, optical isomers (Example 37); type: biochemical; details: 20 min/37° C.
T8 construct: hypothalamus; from tissue; host or cells: rat hypothalamus synaptosomes
Excerpt: as §7

[10] = biological target: T9, DA reuptake, Rat striatum synaptosome (Rattus norvegicus, UniProt P23977); assay: DA reuptake, optical isomers (Example 37); type: biochemical; details: 15 min/37° C.
T9 construct: Rat striatum; from tissue; host or cells: rat striatum synaptosomes
Excerpt: as §7

[11] = one week oral administration, 10.4 mg/kg
[12] = one week oral administration, 17.3 mg/kg
[13] = one week oral administration, 28.8 mg/kg
[14] = one week oral administration, 48 mg/kg
[15] = single oral administration, 10.4 mg/kg
[16] = single oral administration, 17.3 mg/kg
[17] = single oral administration, 28.8 mg/kg
[18] = single oral administration, 48 mg/kg

T7 sequence (P31652 whole entry): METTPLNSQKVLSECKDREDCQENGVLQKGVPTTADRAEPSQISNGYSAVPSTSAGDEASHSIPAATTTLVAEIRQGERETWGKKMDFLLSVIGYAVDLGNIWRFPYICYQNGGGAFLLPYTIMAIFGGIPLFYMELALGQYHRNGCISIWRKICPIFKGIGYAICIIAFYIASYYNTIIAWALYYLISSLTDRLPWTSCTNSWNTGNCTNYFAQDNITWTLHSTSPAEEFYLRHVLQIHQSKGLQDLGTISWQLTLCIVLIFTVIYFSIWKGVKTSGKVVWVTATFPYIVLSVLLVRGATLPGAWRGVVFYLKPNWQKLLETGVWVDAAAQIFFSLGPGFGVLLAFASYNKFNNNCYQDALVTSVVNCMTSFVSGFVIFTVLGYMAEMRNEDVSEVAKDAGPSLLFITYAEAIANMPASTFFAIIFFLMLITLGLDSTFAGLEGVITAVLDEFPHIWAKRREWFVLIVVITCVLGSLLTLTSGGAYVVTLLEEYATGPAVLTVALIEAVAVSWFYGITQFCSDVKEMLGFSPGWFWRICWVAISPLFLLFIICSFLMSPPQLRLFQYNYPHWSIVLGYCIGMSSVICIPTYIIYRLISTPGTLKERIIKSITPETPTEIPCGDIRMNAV
T9 sequence (P23977 whole entry): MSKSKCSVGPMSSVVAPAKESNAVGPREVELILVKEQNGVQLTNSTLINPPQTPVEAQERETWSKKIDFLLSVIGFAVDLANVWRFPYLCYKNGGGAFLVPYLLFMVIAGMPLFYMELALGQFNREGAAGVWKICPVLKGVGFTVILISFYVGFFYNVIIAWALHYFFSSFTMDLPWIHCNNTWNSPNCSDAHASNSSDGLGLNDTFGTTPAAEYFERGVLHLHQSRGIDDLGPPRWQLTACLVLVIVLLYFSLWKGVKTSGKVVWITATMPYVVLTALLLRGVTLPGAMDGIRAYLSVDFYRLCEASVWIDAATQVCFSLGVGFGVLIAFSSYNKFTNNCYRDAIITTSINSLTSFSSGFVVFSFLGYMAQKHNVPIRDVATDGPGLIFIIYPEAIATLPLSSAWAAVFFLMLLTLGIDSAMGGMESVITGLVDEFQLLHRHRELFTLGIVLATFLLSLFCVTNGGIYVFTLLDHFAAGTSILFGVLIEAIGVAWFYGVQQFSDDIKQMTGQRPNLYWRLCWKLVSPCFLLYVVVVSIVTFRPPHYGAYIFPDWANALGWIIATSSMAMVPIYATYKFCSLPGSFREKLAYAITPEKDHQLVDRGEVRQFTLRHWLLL
T8 sequence (Q9WTR4 1-597): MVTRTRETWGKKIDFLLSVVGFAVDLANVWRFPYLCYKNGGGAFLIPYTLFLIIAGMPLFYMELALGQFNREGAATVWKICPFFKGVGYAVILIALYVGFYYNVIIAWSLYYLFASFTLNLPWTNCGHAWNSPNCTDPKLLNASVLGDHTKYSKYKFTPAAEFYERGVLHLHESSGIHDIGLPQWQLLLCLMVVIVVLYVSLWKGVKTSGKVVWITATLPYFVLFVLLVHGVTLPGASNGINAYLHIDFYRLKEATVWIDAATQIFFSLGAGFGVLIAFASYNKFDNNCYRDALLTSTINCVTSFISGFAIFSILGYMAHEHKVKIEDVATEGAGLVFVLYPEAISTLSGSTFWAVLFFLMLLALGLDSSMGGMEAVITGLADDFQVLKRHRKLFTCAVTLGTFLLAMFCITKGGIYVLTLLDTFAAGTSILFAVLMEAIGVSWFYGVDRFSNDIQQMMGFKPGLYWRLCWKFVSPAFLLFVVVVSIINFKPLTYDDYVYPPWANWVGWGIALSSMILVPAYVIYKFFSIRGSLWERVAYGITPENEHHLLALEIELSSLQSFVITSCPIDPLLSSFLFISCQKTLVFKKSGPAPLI
T5 sequence (P31652 whole entry): as the sequence (P31652 whole entry) above
T6 sequence (P31652 whole entry): as above
T4 sequence (P23977 whole entry): as the sequence (P23977 whole entry) above
T1 sequence (P23977 whole entry): as above
T2 sequence (Q9WTR4 1-597): as the sequence (Q9WTR4 1-597) above
T3 sequence (Q9WTR4 1-597): as above

SMILES	IC50 [1] [nM]	mortality (%) (mice; oral 507.8 mg/kg)	number of died animals (mice; oral 507.8 mg/kg)	mortality (%) (mice; oral 781.2 mg/kg)	number of died animals (mice; oral 781.2 mg/kg)	mortality (%) (mice; oral 1201.9 mg/kg)	number of died animals (mice; oral 1201.9 mg/kg)	mortality (%) (mice; oral 1849.1 mg/kg)	number of died animals (mice; oral 1849.1 mg/kg)	mortality (%) (mice; oral 2844.7 mg/kg)	number of died animals (mice; oral 2844.7 mg/kg)	inhibition on the reuptake of NA(%) [2] [%]	IC50 [3] [nM]	inhibition on the reuptake of DA(%) [4] [%]	IC50 [5] [nM]	Inhibition on the reuptake of 5-HT(%) [6] [%]	AUC (0-t) ([7]; i.v. 10 mg/kg) [ng·h/mL]	IC50 [8] [nM]	IC50 [9] [nM]	IC50 [10] [nM]	also measured
CCCC[C@H]([C@@H](O)c1ccc2c(Cl)c(OC)ccc2c1)N1CCN(Cc2ccccc2)CC1 (racemic) [VIII-9, (1SR,2RS)-N^1-benzyl-N^4-[1-butyl-2-(5′-chloro-6′-methoxyl-2′-naphthyl)hydroxyethyl]piperazine]	2.1	0	0	0	0	0	0	0	0	0	0	155.2	2.8	117	73.3	125	4060.59				half life (T½) ([7]; i.v. 10 mg/kg): 7.83 h; Cmax ([7]; i.v. 10 mg/kg, (5 min)): 2640.94 ng/mL; AUC (0-t) ([7]; oral 50 mg/kg): 3345.73 ng·h/mL; Cmax ([7]; oral 50 mg/kg): 352.27 ng/mL; Tmax ([7]; oral 50 mg/kg): 1.50 h; half life (T½) ([7]; oral 50 mg/kg): 5.89 h; bioavailability [7]: 16.32%; swimming test: immobility time (ICR mice; [11]): 93.4 ± 26.71 s; swimming test: immobility time (ICR mice; [12]): 82.1 ± 44.06 s; swimming test: immobility time (ICR mice; [13]): 87.2 ± 40.07 s; swimming test: immobility time (ICR mice; [14]): 91.5 ± 58.14 s; ED50 swimming test (ICR mice; single oral administration): 34.3 mg/kg; swimming test: immobility time (ICR mice; [15]): 74.3 ± 46.63 s; swimming test: immobility time (ICR mice; [16]): 119.4 ± 28.02 s; swimming test: immobility time (ICR mice; [17]): 77.4 ± 53.81 s; swimming test: immobility time (ICR mice; [18]): 104.3 ± 75.81 s
CCCC[C@H]([C@H](O)c1ccc2c(Cl)c(OC)ccc2c1)N1CCN(Cc2ccccc2)CC1 (racemic) [VIII-10, (1SR,2SR)-N^1-benzyl-N^4-[1-butyl-2-(5′-chloro-6′-methoxyl-2′-naphthyl)hydroxyethyl]piperazine]	165	0.00	0	33.3	2	66.7	4	83.3	5	100	6	145	4730	133	272	136	2932.05				LD50 (95% confidential limit) (mice; oral, male & female, Bliss method): 1048.5 (751.33˜1433.7) mg/kg; half life (T½) ([7]; i.v. 10 mg/kg): 9.06 h; Cmax ([7]; i.v. 10 mg/kg, (5 min)): 2998.49 ng/mL; AUC (0-t) ([7]; oral 50 mg/kg): 5552.24 ng·h/mL; Cmax ([7]; oral 50 mg/kg): 727.20 ng/mL; Tmax ([7]; oral 50 mg/kg): 1.67 h; half life (T½) ([7]; oral 50 mg/kg): 16.41 h; bioavailability [7]: 63.78%; swimming test: immobility time (ICR mice; [11]): 77.6 ± 24.69 s; swimming test: immobility time (ICR mice; [12]): 78.2 ± 25.63 s; swimming test: immobility time (ICR mice; [13]): 51.9 ± 51.23 s; swimming test: immobility time (ICR mice; [14]): 68.3 ± 34.01 s; ED50 swimming test (ICR mice; single oral administration): 11.8 mg/kg; swimming test: immobility time (ICR mice; [15]): 81.8 ± 39.34 s; swimming test: immobility time (ICR mice; [16]): 43.4 ± 35.41 s; swimming test: immobility time (ICR mice; [17]): 40.8 ± 40.24 s; swimming test: immobility time (ICR mice; [18]): 64.4 ± 43.01 s
CCCCC(C(O)c1ccc2c(Cl)c(OC)ccc2c1)N1CCN(Cc2ccccc2)CC1 (single isomer, unassigned) [IX-23]																		1900	2100	1000	
CCCCC(C(O)c1ccc2c(Cl)c(OC)ccc2c1)N1CCN(Cc2ccccc2)CC1 (single isomer, unassigned) [IX-24]																		3100	1400	1100	
CCCCC(C(O)c1ccc2c(Cl)c(OC)ccc2c1)N1CCN(Cc2ccccc2)CC1 [IX-25, (1R,2S)-N^1-benzyl-N^4-[1-butyl-2-(5′-chloro-6′-methoxyl-2′-naphthyl)hydroxyethyl]piperazine]																		830	140	670	
